Test results reported in PubChem BioAssay AID1259407 (Chemical Carcinogenesis Research Information System (CCRIS), 2018).
The source made the active and inactive calls. How the calls were made is not given here.

Test system: CCRIS mutagenicity, Ames/micronucleus/aberration tests
Assay: CCRIS mutagenicity studies
[1] = Test System: AMES SALMONELLA TYPHIMURIUM, Strain/Indicator: TA98, Metabolic Activation: NONE, Method: PREINCUBATION
[2] = Test System: AMES SALMONELLA TYPHIMURIUM, Strain/Indicator: TA100, Metabolic Activation: NONE, Method: PREINCUBATION
[3] = Test System: AMES SALMONELLA TYPHIMURIUM, Strain/Indicator: TA98, Metabolic Activation: NONE, Method: STANDARD PLATE
[4] = Test System: AMES SALMONELLA TYPHIMURIUM, Strain/Indicator: TA100, Metabolic Activation: NONE, Method: STANDARD PLATE
[5] = Test System: AMES SALMONELLA TYPHIMURIUM, Strain/Indicator: TA1535, Metabolic Activation: NONE, Method: PREINCUBATION
[6] = Test System: AMES SALMONELLA TYPHIMURIUM, Strain/Indicator: TA1537, Metabolic Activation: NONE, Method: PREINCUBATION

With `O=S(=O)(O)c1ccc(N=Nc2c(O)c(S(=O)(=O)O)cc3cc(S(=O)(=O)O)ccc23)cc1` the mutagenic call [1] was “inactive; negative”, the mutagenic call (Test System: AMES SALMONELLA TYPHIMURIUM, Strain/Indicator: TA98, Metabolic Activation: RAT, LIVER, S-9, PHENOBARBITAL, Method: PREINCUBATION) was “inactive; negative” and the mutagenic call [2] was “inactive; negative”. For the same molecule, the mutagenic call (Test System: AMES SALMONELLA TYPHIMURIUM, Strain/Indicator: TA100, Metabolic Activation: RAT, LIVER, S-9, PHENOBARBITAL, Method: PREINCUBATION) was “inactive; negative”.
In the case of `[N-]=[N+]=N[C@H](c1ccccc1)[C@@H](O)CO`, the mutagenic call (Test System: AMES SALMONELLA TYPHIMURIUM, Strain/Indicator: TA100, Metabolic Activation: RAT, LIVER, S-9, PCB, Method: PREINCUBATION) is reported as “active; positive”.
For `Cc1cncc(C)n1`, the mutagenic call [1] was “inactive; negative”, the mutagenic call [3] was “active; positive” and the mutagenic call (Test System: AMES SALMONELLA TYPHIMURIUM, Strain/Indicator: TA98, Metabolic Activation: RAT, LIVER, S-9, AROCLOR 1254, Method: PREINCUBATION) was “inactive; negative”. For the same molecule, the mutagenic call (Test System: AMES SALMONELLA TYPHIMURIUM, Strain/Indicator: TA98, Metabolic Activation: RAT, LIVER, S-9, AROCLOR 1254, Method: STANDARD PLATE) was “inactive; negative”, the mutagenic call [2] was “inactive; negative” and the mutagenic call [4] was “inactive; negative”. For the same molecule, the mutagenic call (Test System: AMES SALMONELLA TYPHIMURIUM, Strain/Indicator: TA100, Metabolic Activation: RAT, LIVER, S-9, AROCLOR 1254, Method: PREINCUBATION) was “inactive; negative”, the mutagenic call (Test System: AMES SALMONELLA TYPHIMURIUM, Strain/Indicator: TA100, Metabolic Activation: RAT, LIVER, S-9, AROCLOR 1254, Method: STANDARD PLATE) was “inactive; negative” and the mutagenic call (Test System: AMES SALMONELLA TYPHIMURIUM, Strain/Indicator: TA102, Metabolic Activation: NONE, Method: PREINCUBATION) was “inactive; negative”. For the same molecule, the mutagenic call (Test System: AMES SALMONELLA TYPHIMURIUM, Strain/Indicator: TA102, Metabolic Activation: RAT, LIVER, S-9, AROCLOR 1254, Method: PREINCUBATION) was “inactive; negative”.
In the case of `ClC[C@H](Br)CBr`, the mutagenic call (Test System: AMES SALMONELLA TYPHIMURIUM, Strain/Indicator: TA100, Metabolic Activation: RAT, LIVER, MICROSOMES, Method: PREINCUBATION) is reported as “active; positive”.
`Clc1ccc(C(Cl)(Cl)Cl)cc1` was tested, and the mutagenic call (End Point: IN VITRO CHROMOSOMAL ABERRATIONS, Test System: CHL CELLS, Metabolic Activation: NONE) was “active; positive (structural changes)”, the mutagenic call (End Point: IN VITRO CHROMOSOMAL ABERRATIONS, Test System: CHL CELLS, Metabolic Activation: RAT, LIVER, S-9, SODIUM PHENOBARBITAL AND 5,6-BENZOFLAVONE) was “active; positive (structural changes)” and the mutagenic call [1] was “inactive; negative”. The mutagenic call (Test System: AMES SALMONELLA TYPHIMURIUM, Strain/Indicator: TA98, Metabolic Activation: RAT LIVER S-9, PHENOBARBITAL AND BETA-NAPHTHOFLAVONE, Method: PREINCUBATION) was “active; positive”, the mutagenic call [2] was “inactive; negative” and the mutagenic call (Test System: AMES SALMONELLA TYPHIMURIUM, Strain/Indicator: TA100, Metabolic Activation: RAT LIVER S-9, PHENOBARBITAL AND BETA-NAPHTHOFLAVONE, Method: PREINCUBATION) was “active; positive”. For the same molecule, the mutagenic call [5] was “inactive; negative”, the mutagenic call (Test System: AMES SALMONELLA TYPHIMURIUM, Strain/Indicator: TA1535, Metabolic Activation: RAT LIVER S-9, PHENOBARBITAL AND BETA-NAPHTHOFLAVONE, Method: PREINCUBATION) was “active; positive” and the mutagenic call [6] was “inactive; negative”. For the same molecule, the mutagenic call (Test System: AMES SALMONELLA TYPHIMURIUM, Strain/Indicator: TA1537, Metabolic Activation: RAT LIVER S-9, PHENOBARBITAL AND BETA-NAPHTHOFLAVONE, Method: PREINCUBATION) was “active; positive”, the mutagenic call (Test System: AMES SALMONELLA TYPHIMURIUM, Strain/Indicator: TA1538, Metabolic Activation: NONE, Method: PREINCUBATION) was “inactive; negative” and the mutagenic call (Test System: AMES SALMONELLA TYPHIMURIUM, Strain/Indicator: TA1538, Metabolic Activation: RAT LIVER S-9, PHENOBARBITAL AND BETA-NAPHTHOFLAVONE, Method: PREINCUBATION) was “inactive; negative”. The mutagenic call (Test System: E.COLI, Strain/Indicator: WP2UVRA, Metabolic Activation: NONE, Method: PREINCUBATION) was “inactive; negative” and the mutagenic call (Test System: E.COLI, Strain/Indicator: WP2UVRA, Metabolic Activation: RAT LIVER S-9, PHENOBARBITAL AND BETA-NAPHTHOFLAVONE, Method: PREINCUBATION) was “active; positive”.
For `COC(=O)C1=C(C)NC(COC(N)=O)=C(C(=O)OC(C)C)C1c1cccc(Cl)c1Cl` (stereo not drawn), the mutagenic call [1] was “inactive; negative”, the mutagenic call (Test System: AMES SALMONELLA TYPHIMURIUM, Strain/Indicator: TA98, Metabolic Activation: RAT, LIVER, S-9, PHENOBARBITAL AND 5,6-BENZOFLAVONE, Method: PREINCUBATION) was “inactive; negative” and the mutagenic call [2] was “inactive; negative”. The mutagenic call (Test System: AMES SALMONELLA TYPHIMURIUM, Strain/Indicator: TA100, Metabolic Activation: RAT, LIVER, S-9, PHENOBARBITAL AND 5,6-BENZOFLAVONE, Method: PREINCUBATION) was “inactive; negative”, the mutagenic call [5] was “inactive; negative” and the mutagenic call (Test System: AMES SALMONELLA TYPHIMURIUM, Strain/Indicator: TA1535, Metabolic Activation: RAT, LIVER, S-9, PHENOBARBITAL AND 5,6-BENZOFLAVONE, Method: PREINCUBATION) was “inactive; negative”. For the same molecule, the mutagenic call [6] was “inactive; negative”, the mutagenic call (Test System: AMES SALMONELLA TYPHIMURIUM, Strain/Indicator: TA1537, Metabolic Activation: RAT, LIVER, S-9, PHENOBARBITAL AND 5,6-BENZOFLAVONE, Method: PREINCUBATION) was “inactive; negative” and the mutagenic call (Test System: E. COLI, Strain/Indicator: WP2 UVRA, Metabolic Activation: NONE, Method: PREINCUBATION) was “inactive; negative”. For the same molecule, the mutagenic call (Test System: E. COLI, Strain/Indicator: WP2 UVRA, Metabolic Activation: RAT, LIVER, S-9, PHENOBARBITAL AND 5,6-BENZOFLAVONE, Method: PREINCUBATION) was “inactive; negative”.
In the case of `CC\C=C/C=C\C=C/C=C\C=C/OCC(O)CO` (stereo not drawn), the mutagenic call [3] is reported as “active; positive”, the mutagenic call [4] is reported as “active; positive” and the mutagenic call (Test System: AMES SALMONELLA TYPHIMURIUM, Strain/Indicator: TA104, Metabolic Activation: NONE, Method: STANDARD PLATE) is reported as “active; positive”.
